{
  "source": "patent US11957681B2",
  "about": "“Liquid dosage forms of Imatinib” (SHORLA PHARMA LTD., priority 2018, dated 2024)",
  "origin": "cited, not measured here",
  "key": {"[1]": {"details": "compared with Imatinib mesylate"}},
  "data": [
    {"smiles": "Cc1ccc(NC(=O)c2ccc(CN3CCNCC3)cc2)cc1Nc1nccc(-c2cccnc2)n1", "note": "[N-desmethyl derivative]", "values": [
      {"measurement": "Share of the AUC for Imatinib mesylate", "setting": "circulating metabolite", "value": "about 15%"},
      {"measurement": "Elimination half-life", "setting": "imatinib mesylate orally administered", "value": "~40", "unit": "h"},
      {"measurement": "Potency in vitro", "setting": "[1]", "value": "potency similar to Imatinib mesylate"}
    ]}
  ]
}
